Data published in the NIST ThermoML archive (doi:10.1016/j.fluid.2017.04.016).

Assay: mean ionic activity coefficient (dimensionless); mn = molality of the nth substance listed, in mol/kg
Details: 101 kPa, Liquid, galvanic cell

[Br-].[Na+] [sodium bromide] + O
mean ionic activity coefficient
Details | 298.2 K | 310.2 K
m1 = 0.01 | 0.875 | –
m1 = 0.0508 | 0.835 | 0.714
m1 = 0.1 | – | 0.631
m1 = 0.1009 | 0.777 | –
m1 = 0.25 | – | 0.669
m1 = 0.2509 | 0.799 | –
m1 = 0.5004 | 0.699 | –
m1 = 0.5731 | – | 0.579
m1 = 0.75 | 0.637 | –
m1 = 0.7503 | – | 0.559
m1 = 1 | 0.612 | 0.547
m1 = 1.25 | 0.587 | 0.553
m1 = 1.5 | 0.57 | 0.576
m1 = 1.75 | 0.575 | 0.61
m1 = 2 | 0.642 | 0.635
m1 = 2.25 | 0.633 | 0.643
m1 = 2.5 | 0.644 | 0.646
m1 = 2.75 | 0.584 | 0.711
m1 = 3 | 0.616 | 0.846
